How the values were obtained:
IRAK4 = biological target: T1, IRAK4 (Homo sapiens, UniProt Q9NWZ3); assay: IRAK4 MSD degradation in OCI-LY10; format: cell-based; conditions: OCI-LY10 cells, 24 hrs, Meso Scale Discovery
T1 construct: endogenous in cells; host or cells: OCI-LY10
T1 sequence (Q9NWZ3 1-460): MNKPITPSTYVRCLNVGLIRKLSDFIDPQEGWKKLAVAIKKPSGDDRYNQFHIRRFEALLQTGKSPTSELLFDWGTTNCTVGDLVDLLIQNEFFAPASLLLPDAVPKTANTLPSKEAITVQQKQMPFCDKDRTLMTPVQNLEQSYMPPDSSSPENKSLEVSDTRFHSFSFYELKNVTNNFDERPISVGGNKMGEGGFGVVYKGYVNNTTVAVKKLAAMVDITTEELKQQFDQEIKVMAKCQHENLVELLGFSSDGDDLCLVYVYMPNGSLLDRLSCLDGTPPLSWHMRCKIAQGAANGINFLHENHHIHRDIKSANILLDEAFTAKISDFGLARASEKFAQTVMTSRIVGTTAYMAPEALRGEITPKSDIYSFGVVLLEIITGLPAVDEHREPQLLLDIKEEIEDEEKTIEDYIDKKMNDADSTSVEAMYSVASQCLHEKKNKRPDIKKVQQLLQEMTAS
Outline: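 OCI-LY10 cells treated 4 to 24 hours at 37° C. with 8-dose 1:3 series, top 1 to 10 μM. IRAK4 in lysates quantified by MSD sandwich immunoassay (mouse capture, rabbit detection, SULFO-TAG anti-rabbit). DC50 from three-parameter logistic fit.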

[1] = Rodent pharmacokinetics (rat PK); format: in vivo; conditions: po, dosed intravenously or orally by gavage, plasma, read-out: F % (bioavailability)
Outline: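 Rats were dosed IV or by oral gavage, with jugular blood taken predose and at 5 min (IV only), 15, 30 min and 1, 2, 4, 8, 24 h. Plasma was separated by centrifugation at 4 °C. Oral bioavailability (F %) is coded A (≥5%) or B (≤5%).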

Work on Cn1c(=O)n(C2CCC(=O)NC2=O)c2cccc(N3CCC4(CCN(C[C@H]5CC[C@H](n6cc7cc(NC(=O)c8cncc(Cl)c8)c(C(C)(C)O)cc7n6)CC5)CC4(F)F)CC3)c21 (some centres unmarked) [I-387] yielded a DC50 (IRAK4) of less than 10 nM and a bioavailability [1] of no more than 5%.

With Cn1c(=O)n(C2CCC(=O)NC2=O)c2ccc(F)c(N3CC4(CCN(C[C@H]5CC[C@H](n6cc7cc(NC(=O)c8cncc(C#N)c8)c(C(C)(C)O)cc7n6)CC5)CC4(F)F)C3)c21 (some centres unmarked) [I-388] the DC50 (IRAK4) was less than 10 nM and the bioavailability [1] was no more than 5%.

Cn1c(=O)n(C2CCC(=O)NC2=O)c2ccc(F)c(N3CCC4(CCN(C[C@H]5CC[C@H](n6cc7cc(NC(=O)c8cncc(C#N)c8)c(C(C)(C)O)cc7n6)CC5)CC4(F)F)CC3)c21 (some centres unmarked) [I-393] showed a DC50 (IRAK4) of less than 10 nM and a bioavailability [1] of no more than 5%.

For COc1cc(C(=O)Nc2ccc3nn([C@H]4CC[C@H](CN5CC[C@@H](c6cccc7c6n(C)c(=O)n7C6CCC(=O)NC6=O)[C@H](F)C5)CC4)cc3c2)nc(C(F)(F)F)c1 (some centres unmarked) [I-394], the DC50 (IRAK4) was greater than 200 nM and the bioavailability [1] was no less than 5%.

Cc1cc(C(=O)Nc2ccc3nn([C@H]4CC[C@H](CN5CC[C@@H](c6cccc7c6n(C)c(=O)n7C6CCC(=O)NC6=O)[C@H](F)C5)CC4)cc3c2)nc(C(F)(F)F)c1 (some centres unmarked) [I-395] gave a DC50 (IRAK4) greater than 200 nM and a bioavailability [1] of no less than 5%.

COc1cc2nn([C@H]3CC[C@H](CN4CCC5(CCN(c6cccc7c6n(C)c(=O)n7C6CCC(=O)NC6=O)CC5)C(F)(F)C4)CC3)cc2cc1C(=O)Nc1cccc(C(F)(F)F)n1 (some centres unmarked) [I-396] showed a DC50 (IRAK4) greater than 200 nM and a bioavailability [1] of no more than 5%.

CC(C)(O)c1cc2nn([C@H]3CC[C@H](CN4CCC5(CCN(c6cccc7c(N8CCC(=O)NC8=O)cncc67)CC5)C(F)(F)C4)CC3)cc2cc1NC(=O)c1cncc(C#N)c1 [I-400] showed a DC50 (IRAK4) of less than 10 nM and a bioavailability [1] of no more than 5%.

For Cn1nc(N2CCC(=O)NC2=O)c2cccc(N3CCC4(CCN(C[C@H]5CC[C@H](n6cc7cc(NC(=O)c8cncc(C#N)c8)c(C(C)(C)O)cc7n6)CC5)CC4(F)F)CC3)c21 [I-404], the DC50 (IRAK4) was 10 to 100 nM and the bioavailability [1] was no more than 5%.

For Cn1c(=O)n(C2CCC(=O)NC2=O)c2cccc([C@@H]3CCN(C[C@H]4CC[C@H](c5nc6cc(C(C)(C)O)c(NC(=O)c7cncc(C#N)c7)cc6o5)CC4)C[C@H]3F)c21 (some centres unmarked) [I-405], the DC50 (IRAK4) was 10 to 100 nM and the bioavailability [1] was no more than 5%.

Cn1c(=O)n(C2CCC(=O)NC2=O)c2cccc(N3CCC4(CCN(C[C@H]5CC[C@H](c6nc7cc(C(C)(C)O)c(NC(=O)c8cncc(C#N)c8)cc7o6)CC5)CC4(F)F)CC3)c21 (some centres unmarked) [I-406] showed a DC50 (IRAK4) greater than 200 nM and a bioavailability [1] of no more than 5%.

For Cn1c(=O)n(C2CCC(=O)NC2=O)c2cccc(N3CCC4(CCN(C[C@H]5CC[C@H](c6nc7cc(C(C)(C)O)c(NC(=O)c8cccc(C(F)(F)F)n8)cc7s6)CC5)CC4(F)F)CC3)c21 (some centres unmarked) [I-407], the DC50 (IRAK4) was 10 to 100 nM and the bioavailability [1] was no more than 5%.

Cn1c(=O)n(C2CCC(=O)NC2=O)c2cccc(N3CCC4(CCN(C[C@H]5CC[C@H](c6nc7cc(C(C)(C)O)c(NC(=O)c8cccc(C(F)(F)F)n8)cc7o6)CC5)CC4(F)F)CC3)c21 (some centres unmarked) [I-408] gave a DC50 (IRAK4) greater than 200 nM and a bioavailability [1] of no less than 5%.

Cn1c(=O)n(C2CCC(=O)NC2=O)c2cccc(N3CC4(CCN(C[C@H]5CC[C@H](c6nc7cc(C(C)(C)O)c(NC(=O)c8cccc(C(F)(F)F)n8)cc7s6)CC5)CC4(F)F)C3)c21 (some centres unmarked) [I-409] gave a DC50 (IRAK4) of 10 to 100 nM and a bioavailability [1] of no less than 5%.

Cn1c(=O)n(C2CCC(=O)NC2=O)c2cccc(N3CC4(CCN(C[C@H]5CC[C@H](c6nc7cc(C(C)(C)O)c(NC(=O)c8cncc(C#N)c8)cc7o6)CC5)CC4(F)F)C3)c21 (some centres unmarked) [I-410] gave a DC50 (IRAK4) greater than 200 nM and a bioavailability [1] of no less than 5%.

Compound Cn1c(=O)n(C2CCC(=O)NC2=O)c2cccc(N3CC4(CCN(C[C@H]5CC[C@H](c6nc7cc(C(C)(C)O)c(NC(=O)c8cccc(C(F)(F)F)n8)cc7o6)CC5)CC4(F)F)C3)c21 (some centres unmarked) [I-411] has a DC50 (IRAK4) greater than 200 nM and a bioavailability [1] of no less than 5%.

With COc1ccc2c(c1N1CC3(CCN(C[C@H]4CC[C@H](c5nc6cc(C(C)(C)O)c(NC(=O)c7cncc(C#N)c7)cc6s5)CC4)CC3(F)F)C1)n(C)c(=O)n2C1CCC(=O)NC1=O (some centres unmarked) [I-412] the DC50 (IRAK4) was 100 to 200 nM and the bioavailability [1] was no more than 5%.

COc1ccc2c(c1N1CC3(CCN(C[C@H]4CC[C@H](c5nc6cc(C(C)(C)O)c(NC(=O)c7cncc(C#N)c7)cc6o5)CC4)CC3(F)F)C1)n(C)c(=O)n2C1CCC(=O)NC1=O (some centres unmarked) [I-413] showed a DC50 (IRAK4) greater than 200 nM and a bioavailability [1] of no more than 5%.

With COc1ccc2c(c1N1CC3(CCN(C[C@H]4CC[C@H](c5nc6cc(C(C)(C)O)c(NC(=O)c7cccc(C(F)(F)F)n7)cc6s5)CC4)CC3(F)F)C1)n(C)c(=O)n2C1CCC(=O)NC1=O (some centres unmarked) [I-414] the DC50 (IRAK4) was greater than 200 nM and the bioavailability [1] was no more than 5%.

COc1ccc2c(c1N1CC3(CCN(C[C@H]4CC[C@H](c5nc6cc(C(C)(C)O)c(NC(=O)c7cccc(C(F)(F)F)n7)cc6o5)CC4)CC3(F)F)C1)n(C)c(=O)n2C1CCC(=O)NC1=O (some centres unmarked) [I-415] showed a DC50 (IRAK4) of less than 10 nM and a bioavailability [1] of no more than 5%.
